{"source": "paper PMC9921564", "about": "“Novel Indole-Containing Hybrids Derived from Millepachine: Synthesis, Biological Evaluation and Antitumor Mechanism Study” (Molecules, 2023)", "key": {"[1]": {"system": "A549 cells", "assay": "MMP detection by JC-1", "format": "cell-based, human", "settings": "A549, 10, 20 and 50 nM, 12 h", "from_the_text": "The intrinsic mitochondrial pathway is one of the most well-studied mechanisms relevant to cell apoptosis. ROS accumulation and mitochondrial membrane potential (MMP) alteration play crucial roles in this pathway. In this study, a fluorescent dye including DCFH-DA and JC-1 was used to monitor the intracellular ROS and MMP, respectively.\nFigure 5 ROS accumulation and MMP alteration induced by compound 14b. (A,B) The intracellular ROS detection by DCFH-DA after A549 cells treated with compound 14b at indicated concentrations for 12 h. (C,D) The detection of MMP monitored by JC-1 dye after A549 cells treated with compound 14b at the concentrations of 10, 20 and 50 nM for 12 h. […]\nsamples were fixed in ice-cold 70% ethanol overnight and removed with ice-cold PBS for three times. […] After the incubation, the prepared cell samples were immediately analyzed. Almost 10,000 events were detected by flow cytometry (Beckman Coulter, CytoFlex LX). The data regarding the number of cells in different phases of the cell cycle were or apoptotic cells were analyzed by […]\nCaspase-3 activity was measured according to the manufacturer ’s instructions using a GreenNuc™ Caspase-3 assay kit for live cells (Beyotime, China). […] After incubation, the fluorescence intensity (excitation wavelength:\n485 nm, emission wavelength: 515 nm) was recorded using a multifunctional microplate reader (Thermo Scientific, Varioskan LUX). […]"}, "[2]": {"system": "A549 cells", "assay": "cell cycle analysis by flow cytometry (PI)", "format": "cell-based, human", "settings": "24 h, control 14.92%", "procedure": "Microtubules play an important role in maintaining the normal process of cell mitosis.\nFigure 3 Compound 14b induced cell cycle arrest at the G2/M phase. (A) The PI-stained DNA content detected by flow cytometry. A549 cells were treated with or without compound 14b at concentrations of 10, 20 and 50 nM for 24 h; then, the cells were harvested for cell cycle analysis by flow cytometry. (B) Quantitative analysis of the percentage of cells in each cell cycle phase by CytExpert analysis software. The experiments were performed at least three times, and the results of the representative experiments are shown.\nS Ⅳ. Biological evaluation methods\nThe cells grown in logarithmical phase were seeded in 96-well plates with the density of 5×10^3/well.\nAfter 24 h, the medium containing different concentrations of tested compounds were added for another 48 h. Then, CCK-8 reagents were added to cells and continued to culture for 2 h. The optical density was recorded with a microplate reader at 570 nm (Thermo Scientific, Varioskan LUX). All the experiments were repeated independently at least three times and the IC50 values were calculated […]\nS2. In vitro tubulin polymerization inhibition assay\nThe in vitro tubulin polymerization inhibition assay was conducted according to the manufacturer ’s instruction (cytoskeleton, cat. no. BK011P). Briefly, 5 μL of the tested compounds at the indicated concentrations which were prepared with the buffer solution (containing 80.0 mM piperazine-N,N-bis(2-ethanesulfonic acid) sequiso-dium salt (pH 6.9), 10.2% glycerol, 2.0 mM MgCl2, 1 mM GTP, and 0.5 mM EGTA) was added to the plate. After the mixture was warmed to 37 °C for 1 min, the reaction was initiated by the addition of 55 μL of the tubulin solution which was kept on ice in prior.\nThe fluorescence intensity enhancement (emission wavelength is 410 nm, excitation wavelength is 340 nm) was recorded every 60 s for 60 min in a multifunction microplate reader (Molecular Devices, Flex Station 3). […]"}}, "data": [{"smiles": "COc1ccc(C(=O)c2ccc3c(ccn3C)c2)c2c1C=CC(C)(C)O2", "note": "[compound 14b, (5-methoxy-2,2-dimethyl-2H-chromen-8-yl)(1-methyl-1H-indol-5-yl)methanone]", "values": [{"measurement": "MMP, ratio of JC-1 aggregates to monomers", "setting": "[1]", "result": "remarkably decreased"}, {"measurement": "percentage of cells in G2/M", "setting": "[2]; A549, 10 nM", "result": 26.88, "unit": "%"}, {"measurement": "percentage of cells in G2/M", "setting": "[2]; A549, 20 nM", "result": 35.02, "unit": "%"}, {"measurement": "percentage of cells in G2/M", "setting": "[2]; A549, 50 nM", "result": 52.67, "unit": "%"}]}]}
